The supplement of paper PMC12463676, “Small-molecule dissolution of stress granules by redox modulation benefits ALS models” (Nature Chemical Biology, 2025)

Tests used:
lipoamide = compound: NC(=O)CCCCC1CCSS1 [lipoamide]; test: thermal stability z-score vs DMSO; higher = more thermally stabilized by treatment; settings: HeLa, lipoamide concentration 100 µM
Method: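 Cellular thermal proteome profiling in HeLa cells. Cells were treated with 100 µM lipoamide for 1 h, with or without 1 mM arsenate for a further 1 h, then heated to ten temperatures (37-66.3 °C), and soluble protein was quantified by TMT mass spectrometry relative to 0.1% DMSO controls. The thermal stability score (sum of log2 fold changes minus the abundance score) was transformed to a z-score; mean of n = 3 experiments.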

potassium arsenate = compound: O=[As]([O-])(O)O.[K+] [potassium arsenate]; test: as above; settings: HeLa; arsenate concentration 1 mM
Method: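 Cellular thermal proteome profiling in HeLa cells treated with 1 mM arsenate for 1 h (DMSO pretreatment), heated to ten temperatures (37-66.3 °C). Soluble protein was quantified by TMT mass spectrometry relative to DMSO controls; the thermal stability score was transformed to a z-score; mean of n = 3 experiments.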

[1] = arsenate co-treatment: 1 mM arsenate 1 h
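Further: each temperature applied for 3 min, abundance score taken as mean log2 fold change at the two lowest temperatures, z-score obtained by mean subtraction and division by SD.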

Sequence of UniProt Q13557 (Q13557 whole entry): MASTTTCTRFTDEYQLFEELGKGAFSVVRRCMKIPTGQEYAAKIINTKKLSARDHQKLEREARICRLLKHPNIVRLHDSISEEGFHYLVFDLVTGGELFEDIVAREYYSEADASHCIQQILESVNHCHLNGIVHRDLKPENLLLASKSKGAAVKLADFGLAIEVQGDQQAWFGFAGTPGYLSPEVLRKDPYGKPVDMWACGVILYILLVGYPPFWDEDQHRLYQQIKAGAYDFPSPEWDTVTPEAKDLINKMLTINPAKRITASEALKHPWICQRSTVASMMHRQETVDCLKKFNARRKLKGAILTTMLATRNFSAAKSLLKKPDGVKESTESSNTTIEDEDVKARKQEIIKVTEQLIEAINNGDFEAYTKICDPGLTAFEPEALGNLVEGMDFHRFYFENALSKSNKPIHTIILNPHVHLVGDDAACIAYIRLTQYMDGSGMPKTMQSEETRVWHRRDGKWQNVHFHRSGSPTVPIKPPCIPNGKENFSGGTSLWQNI
Sequence of UniProt Q05682 (Q05682 whole entry): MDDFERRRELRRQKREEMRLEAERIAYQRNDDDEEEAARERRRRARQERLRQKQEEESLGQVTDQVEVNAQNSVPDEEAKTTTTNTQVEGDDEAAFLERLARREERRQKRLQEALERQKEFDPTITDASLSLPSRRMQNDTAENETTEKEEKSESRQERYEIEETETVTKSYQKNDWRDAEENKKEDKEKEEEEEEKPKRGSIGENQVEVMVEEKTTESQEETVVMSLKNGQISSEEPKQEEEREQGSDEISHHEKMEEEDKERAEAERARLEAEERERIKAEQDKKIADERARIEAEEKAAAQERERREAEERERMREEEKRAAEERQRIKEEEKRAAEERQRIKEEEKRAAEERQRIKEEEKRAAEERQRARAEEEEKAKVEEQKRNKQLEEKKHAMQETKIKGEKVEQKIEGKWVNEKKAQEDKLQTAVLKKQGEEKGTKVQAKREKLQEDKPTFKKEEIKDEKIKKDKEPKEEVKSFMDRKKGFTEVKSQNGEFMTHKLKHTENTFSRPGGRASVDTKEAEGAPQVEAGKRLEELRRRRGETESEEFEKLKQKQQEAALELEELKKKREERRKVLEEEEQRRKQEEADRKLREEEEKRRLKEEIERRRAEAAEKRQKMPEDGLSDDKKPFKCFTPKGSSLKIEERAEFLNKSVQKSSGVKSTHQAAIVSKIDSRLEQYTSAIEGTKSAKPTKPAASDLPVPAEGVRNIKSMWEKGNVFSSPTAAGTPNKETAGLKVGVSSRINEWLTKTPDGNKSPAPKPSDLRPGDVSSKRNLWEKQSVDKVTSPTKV
Sequence of UniProt O15234 (O15234 whole entry): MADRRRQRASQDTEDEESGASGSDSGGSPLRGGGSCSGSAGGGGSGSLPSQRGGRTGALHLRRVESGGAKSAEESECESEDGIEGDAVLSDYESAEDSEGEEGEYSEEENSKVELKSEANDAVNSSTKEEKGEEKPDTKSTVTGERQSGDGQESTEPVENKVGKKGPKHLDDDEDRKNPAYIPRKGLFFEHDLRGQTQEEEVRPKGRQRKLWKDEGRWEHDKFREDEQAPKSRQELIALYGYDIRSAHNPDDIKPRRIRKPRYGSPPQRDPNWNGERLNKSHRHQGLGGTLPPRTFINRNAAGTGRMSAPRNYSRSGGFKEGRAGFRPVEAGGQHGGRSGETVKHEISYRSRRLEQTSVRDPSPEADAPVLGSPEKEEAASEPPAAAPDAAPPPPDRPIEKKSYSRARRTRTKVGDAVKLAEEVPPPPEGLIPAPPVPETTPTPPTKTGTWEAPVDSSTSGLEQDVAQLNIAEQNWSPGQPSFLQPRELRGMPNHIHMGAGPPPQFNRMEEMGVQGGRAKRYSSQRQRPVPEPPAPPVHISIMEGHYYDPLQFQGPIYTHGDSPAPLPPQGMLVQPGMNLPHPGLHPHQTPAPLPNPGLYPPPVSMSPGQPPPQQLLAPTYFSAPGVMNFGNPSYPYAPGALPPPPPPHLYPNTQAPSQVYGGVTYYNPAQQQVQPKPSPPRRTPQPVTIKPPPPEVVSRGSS
Sequence of UniProt Q14790 (Q14790 whole entry): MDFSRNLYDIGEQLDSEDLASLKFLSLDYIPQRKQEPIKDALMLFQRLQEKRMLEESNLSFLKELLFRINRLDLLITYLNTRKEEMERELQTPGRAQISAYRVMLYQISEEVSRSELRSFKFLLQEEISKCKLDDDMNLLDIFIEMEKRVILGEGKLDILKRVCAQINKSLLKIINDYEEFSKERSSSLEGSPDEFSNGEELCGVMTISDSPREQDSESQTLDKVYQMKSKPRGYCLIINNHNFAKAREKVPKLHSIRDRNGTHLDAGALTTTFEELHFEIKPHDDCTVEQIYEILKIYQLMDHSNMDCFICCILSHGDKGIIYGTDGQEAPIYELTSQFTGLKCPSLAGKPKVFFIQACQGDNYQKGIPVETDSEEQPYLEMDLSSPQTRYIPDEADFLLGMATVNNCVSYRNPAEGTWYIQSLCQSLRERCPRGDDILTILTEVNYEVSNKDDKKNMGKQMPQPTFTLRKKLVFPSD
Sequence of UniProt P42575 (P42575 whole entry): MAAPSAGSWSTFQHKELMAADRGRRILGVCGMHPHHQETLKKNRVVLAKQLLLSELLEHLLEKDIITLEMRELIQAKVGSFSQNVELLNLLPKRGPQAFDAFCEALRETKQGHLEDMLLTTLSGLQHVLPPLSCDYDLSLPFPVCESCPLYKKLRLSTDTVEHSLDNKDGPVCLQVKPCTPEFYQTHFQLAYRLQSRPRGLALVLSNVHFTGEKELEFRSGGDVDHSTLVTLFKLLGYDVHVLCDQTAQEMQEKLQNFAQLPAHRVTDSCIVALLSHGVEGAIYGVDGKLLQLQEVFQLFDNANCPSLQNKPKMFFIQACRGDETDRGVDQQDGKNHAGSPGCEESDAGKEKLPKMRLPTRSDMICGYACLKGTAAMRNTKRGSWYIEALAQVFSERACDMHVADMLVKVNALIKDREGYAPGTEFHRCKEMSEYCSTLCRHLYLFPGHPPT
Sequence of UniProt P40123 (P40123 whole entry): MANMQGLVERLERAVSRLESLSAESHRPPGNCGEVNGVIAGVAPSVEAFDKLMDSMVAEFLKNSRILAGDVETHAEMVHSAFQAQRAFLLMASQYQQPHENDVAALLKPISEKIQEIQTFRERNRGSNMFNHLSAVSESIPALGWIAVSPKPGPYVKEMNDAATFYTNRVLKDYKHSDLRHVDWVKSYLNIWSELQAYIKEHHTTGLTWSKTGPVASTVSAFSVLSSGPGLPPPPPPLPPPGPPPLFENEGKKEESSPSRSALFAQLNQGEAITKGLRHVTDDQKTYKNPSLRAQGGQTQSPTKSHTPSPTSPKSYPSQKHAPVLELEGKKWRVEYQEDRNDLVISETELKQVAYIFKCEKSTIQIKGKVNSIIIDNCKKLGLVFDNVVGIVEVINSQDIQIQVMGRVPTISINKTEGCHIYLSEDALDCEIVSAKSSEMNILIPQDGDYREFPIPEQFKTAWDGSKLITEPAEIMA
Sequence of UniProt Q9Y2V2 (Q9Y2V2 whole entry): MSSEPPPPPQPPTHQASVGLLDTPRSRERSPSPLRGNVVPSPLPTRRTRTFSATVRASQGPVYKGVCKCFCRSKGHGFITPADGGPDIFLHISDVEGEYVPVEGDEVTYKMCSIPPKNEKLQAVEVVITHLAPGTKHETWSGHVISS
Sequence of UniProt Q96LW7 (Q96LW7 whole entry): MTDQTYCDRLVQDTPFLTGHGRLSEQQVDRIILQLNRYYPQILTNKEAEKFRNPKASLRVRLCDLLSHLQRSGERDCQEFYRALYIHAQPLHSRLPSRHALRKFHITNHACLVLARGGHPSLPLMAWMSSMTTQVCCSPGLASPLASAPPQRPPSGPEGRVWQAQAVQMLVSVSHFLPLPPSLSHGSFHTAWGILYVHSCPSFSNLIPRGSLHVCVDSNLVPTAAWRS
Sequence of UniProt Q01518 (Q01518 whole entry): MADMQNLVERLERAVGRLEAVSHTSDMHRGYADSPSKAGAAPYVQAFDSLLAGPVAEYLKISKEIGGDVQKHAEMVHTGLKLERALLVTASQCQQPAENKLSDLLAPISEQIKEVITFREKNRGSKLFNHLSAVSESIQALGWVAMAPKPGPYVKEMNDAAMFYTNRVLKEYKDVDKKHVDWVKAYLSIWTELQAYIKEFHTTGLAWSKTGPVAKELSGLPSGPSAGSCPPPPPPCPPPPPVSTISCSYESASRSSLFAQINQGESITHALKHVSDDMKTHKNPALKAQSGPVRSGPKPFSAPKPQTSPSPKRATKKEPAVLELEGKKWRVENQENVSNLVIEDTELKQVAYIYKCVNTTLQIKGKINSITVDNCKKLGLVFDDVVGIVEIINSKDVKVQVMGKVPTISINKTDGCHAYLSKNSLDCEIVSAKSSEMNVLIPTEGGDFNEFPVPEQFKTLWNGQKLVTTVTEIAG
Sequence of UniProt Q13555 (Q13555 whole entry): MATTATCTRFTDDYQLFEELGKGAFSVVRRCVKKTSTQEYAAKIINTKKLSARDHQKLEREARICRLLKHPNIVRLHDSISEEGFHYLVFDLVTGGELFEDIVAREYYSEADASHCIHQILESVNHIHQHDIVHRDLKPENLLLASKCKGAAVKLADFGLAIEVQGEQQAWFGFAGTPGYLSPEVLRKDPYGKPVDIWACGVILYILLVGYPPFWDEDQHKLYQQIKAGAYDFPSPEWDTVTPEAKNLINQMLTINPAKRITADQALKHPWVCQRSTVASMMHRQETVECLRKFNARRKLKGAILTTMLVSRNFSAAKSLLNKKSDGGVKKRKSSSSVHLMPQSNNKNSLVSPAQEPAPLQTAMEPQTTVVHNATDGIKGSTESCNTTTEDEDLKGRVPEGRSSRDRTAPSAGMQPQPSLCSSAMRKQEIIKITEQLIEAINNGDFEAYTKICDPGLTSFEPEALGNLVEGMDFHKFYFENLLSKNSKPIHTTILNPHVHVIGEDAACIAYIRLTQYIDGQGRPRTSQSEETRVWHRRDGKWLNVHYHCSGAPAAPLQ
Sequence of UniProt P51636 (P51636 whole entry): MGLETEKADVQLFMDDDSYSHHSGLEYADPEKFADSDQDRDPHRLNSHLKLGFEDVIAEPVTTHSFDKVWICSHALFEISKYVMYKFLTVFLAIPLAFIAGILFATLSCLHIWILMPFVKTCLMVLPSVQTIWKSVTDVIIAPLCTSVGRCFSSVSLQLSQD

Target	thermal stability z-score (lipoamide; [1])	thermal stability z-score (lipoamide; arsenate co-treatment: none)	thermal stability z-score (potassium arsenate)
C18ORF8 (UniProt Q96DM3)	0.827	0.41	-0.638
C18ORF21 (UniProt Q32NC0)	-0.42	-0.189	-2.28
C18ORF25 (UniProt Q96B23)	-0.688	-0.189	0.363
C19ORF43 (UniProt Q9BQ61)	0.121	0.217	-0.0224
C19ORF52 (UniProt Q9BSF4)	0.441	0.873	0.873
C19ORF53 (UniProt Q9UNZ5)	0.3	0.508	-0.988
C19ORF70|MIC13	0.265	0.131	0.22
C20ORF24 (UniProt Q9BUV8)	0.799	0.361	-0.477
C20ORF27 (UniProt Q9GZN8)	0.247	0.189	-0.583
C21ORF59 (UniProt P57076)	0.103	0.1	0.112
CAB39 (UniProt Q9Y376)	0.454	0.641	-0.245
CABLES1 (UniProt Q8TDN4)	0.124	0.218	-0.0215
CACTIN (UniProt Q8WUQ7)	-0.265	-0.163	-0.0248
CACUL1 (UniProt Q86Y37)	0.0904	0.129	-0.563
CACYBP (UniProt Q9HB71)	0.276	0.0201	0.37
CAD (UniProt P27708)	-0.284	-1.08	-0.201
CADM1 (UniProt Q9BY67)	0.995	0.905	0.376
CALCOCO1 (UniProt Q9P1Z2)	0.179	0.0847	0.0728
CALCOCO2 (UniProt Q13137)	0.172	0.108	0.743
CALD1 (UniProt Q05682)	0.261	0.218	0.103
CALM1 (UniProt P0DP23)	3.06	1.53	1.29
CALR (UniProt P27797)	-4.25	-3.48	0.147
CALU (UniProt O43852)	0.0232	0.235	0.255
CAMK1D (UniProt Q8IU85)	-0.513	-0.221	0.553

Target	thermal stability z-score (lipoamide; [1])	thermal stability z-score (lipoamide; arsenate co-treatment: none)	thermal stability z-score (potassium arsenate)
CAMK2D (UniProt Q13557)	0.111	0.215	-0.0188
CAMK2G (UniProt Q13555)	-0.504	-0.174	0.174
CAMKK1 (UniProt Q8N5S9)	0.776	1.45	4.72
CAMKMT (UniProt Q7Z624)	0.0977	-0.0333	-0.235
CAMLG (UniProt P49069)	0.508	0.0877	0.0417
CAMSAP1 (UniProt Q5T5Y3)	0.0305	-0.371	-0.293
CAMSAP2 (UniProt Q08AD1)	-0.52	-0.353	-1.05
CAND1 (UniProt Q86VP6)	0.463	0.225	-0.122
CANT1 (UniProt Q8WVQ1)	0.0524	0.482	-0.0872
CANX (UniProt P27824)	-3.78	-3.12	0.851
CAP1 (UniProt Q01518)	0.524	0.502	-0.0608
CAP2 (UniProt P40123)	0.00549	-0.126	0.329
CAPG (UniProt P40121)	0.598	0.158	-0.915
CAPN1 (UniProt P07384)	-0.0396	-0.213	-0.369
CAPN2 (UniProt P17655)	0.345	0.208	0.109
CAPN7 (UniProt Q9Y6W3)	0.28	0.65	0.922
CAPN15 (UniProt O75808)	0.0525	0.0796	-0.24
CAPNS1 (UniProt P04632)	0.532	0.582	0.0106
CAPRIN1 (UniProt Q14444)	0.381	0.754	0.295
CAPZA1 (UniProt P52907)	-0.236	0.183	0.38
CAPZA2 (UniProt P47755)	-0.00372	0.906	0.697
CAPZB (UniProt P47756)	-0.059	0.144	0.454
CARD19 (UniProt Q96LW7)	0.507	1.37	0.524
CARHSP1 (UniProt Q9Y2V2)	0.147	0.812	-5.57

Target	thermal stability z-score (lipoamide; [1])	thermal stability z-score (lipoamide; arsenate co-treatment: none)	thermal stability z-score (potassium arsenate)
CARM1 (UniProt Q86X55)	0.99	0.944	0.086
CARNMT1 (UniProt Q8N4J0)	-0.0735	-0.179	0.59
CARS2 (UniProt Q9HA77)	-0.273	-0.517	-1.39
CARS (UniProt P49589)	-0.705	-0.132	-0.416
CASC3 (UniProt O15234)	0.25	0.544	-1.15
CASC4 (UniProt Q6P4E1)	0.245	0.111	0.0247
CASC5 (UniProt Q8NG31)	-0.0952	-0.0158	0.219
CASK (UniProt O14936)	0.388	0.281	-0.0604
CASKIN2 (UniProt Q8WXE0)	-0.798	0.441	0.938
CASP1 (UniProt P29466)	-1.23	-0.846	-0.416
CASP2 (UniProt P42575)	-0.172	0.304	-1
CASP3 (UniProt P42574)	0.382	-0.0479	-0.737
CASP4 (UniProt P49662)	0.133	0.419	0.496
CASP6 (UniProt P55212)	1.05	1.33	0.158
CASP7 (UniProt P55210)	0.596	0.147	-0.753
CASP8 (UniProt Q14790)	-2.33	-0.106	-0.648
CAST (UniProt P20810)	0.525	0.428	0.122
CAT (UniProt P04040)	0.883	1.41	0.346
CAV1 (UniProt Q03135)	0.49	0.74	1.02
CAV2 (UniProt P51636)	1.26	-0.268	1.51
CBFB (UniProt Q13951)	-0.0158	-0.159	0.352
CBL (UniProt P22681)	0.255	0.154	-0.368
CBLB (UniProt Q13191)	0.338	-0.251	-0.0258
